From ChEMBL document CHEMBL4373665, “Discovery of new non-acidic lonazolac analogues with COX-2 selectivity as potent anti-inflammatory agents” (Medchemcomm, 2019)

Experiments:
[1] = Ulcerogenic activity in rat assessed as effect on mucosal blood vessel at 50 mg/kg by hematoxylin and eosin staining based assay; assay type: toxicity, organism-based; conditions: in vivo
[2] = molecular target: Prostaglandin G/H synthase 1 (Homo sapiens, UniProt P23219); assay: Inhibition of human recombinant COX1 assessed as decrease in prostaglandin production using arachidonic acid as substrate pretreated for 15 mins followed by substrate addition and measured after 2 mins by enzyme immunoassay; assay type: single protein
Prostaglandin G/H synthase 1, sequence (P23219 whole entry): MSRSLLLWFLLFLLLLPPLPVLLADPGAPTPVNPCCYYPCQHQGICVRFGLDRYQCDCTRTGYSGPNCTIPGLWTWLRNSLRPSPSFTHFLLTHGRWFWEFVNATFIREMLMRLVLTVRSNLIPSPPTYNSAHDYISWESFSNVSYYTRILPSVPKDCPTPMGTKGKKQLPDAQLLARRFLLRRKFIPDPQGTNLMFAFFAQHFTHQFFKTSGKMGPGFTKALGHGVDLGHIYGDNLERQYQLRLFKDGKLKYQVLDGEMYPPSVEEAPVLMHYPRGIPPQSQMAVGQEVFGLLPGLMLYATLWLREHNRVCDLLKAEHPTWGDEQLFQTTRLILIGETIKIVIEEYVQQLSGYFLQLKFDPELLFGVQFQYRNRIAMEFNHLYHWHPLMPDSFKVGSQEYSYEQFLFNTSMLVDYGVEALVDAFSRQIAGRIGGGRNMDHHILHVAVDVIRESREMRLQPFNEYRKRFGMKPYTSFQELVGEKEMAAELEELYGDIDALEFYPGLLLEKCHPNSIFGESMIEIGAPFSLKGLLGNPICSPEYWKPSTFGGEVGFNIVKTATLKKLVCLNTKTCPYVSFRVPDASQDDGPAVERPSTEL

[3] = molecular target: T1, Prostaglandin G/H synthase 2 (Homo sapiens, UniProt P35354); assay: Inhibition of human recombinant COX2 assessed as decrease in prostaglandin production using arachidonic acid as substrate pretreated for 15 mins followed by substrate addition and measured after 2 mins by enzyme immunoassay
T1 sequence (P35354 whole entry): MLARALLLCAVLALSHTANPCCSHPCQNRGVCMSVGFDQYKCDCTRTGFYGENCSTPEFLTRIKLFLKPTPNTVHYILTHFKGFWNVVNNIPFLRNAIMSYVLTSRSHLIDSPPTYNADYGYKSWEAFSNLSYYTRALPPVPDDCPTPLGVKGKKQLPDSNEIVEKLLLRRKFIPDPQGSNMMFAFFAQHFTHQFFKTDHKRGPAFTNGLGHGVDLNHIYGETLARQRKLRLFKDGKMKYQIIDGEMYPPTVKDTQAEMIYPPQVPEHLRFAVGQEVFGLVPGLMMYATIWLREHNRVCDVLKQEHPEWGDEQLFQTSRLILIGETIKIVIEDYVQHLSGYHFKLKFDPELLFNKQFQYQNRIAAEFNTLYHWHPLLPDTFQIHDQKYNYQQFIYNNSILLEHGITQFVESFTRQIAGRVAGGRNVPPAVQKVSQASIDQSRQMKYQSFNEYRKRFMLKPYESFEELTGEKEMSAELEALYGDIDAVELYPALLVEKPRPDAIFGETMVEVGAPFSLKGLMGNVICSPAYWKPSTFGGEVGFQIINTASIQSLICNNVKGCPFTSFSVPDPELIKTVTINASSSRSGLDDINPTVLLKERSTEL

Homo sapiens = species: Homo sapiens; assay: Selectivity index, ratio of IC50 for human recombinant COX1 to IC50 for human recombinant COX2 using arachidonic acid as substrate
Rattus norvegicus [4] = assay: Anti-inflammatory activity in albino rat model of carrageenan-induced paw edema assessed as inhibition of carrageenan-induced paw edema at 100 mg/kg, po administered as single dose prior to carrageenan challenge measured after 1 hr relative to control; assay type: functional
Rattus norvegicus [5] = assay: Anti-inflammatory activity in albino rat model of carrageenan-induced paw edema assessed as inhibition of carrageenan-induced paw edema at 100 mg/kg, po administered as single dose prior to carrageenan challenge measured after 3 hrs relative to control; assay type: functional
Rattus norvegicus [6] = assay: Anti-inflammatory activity in albino rat model of carrageenan-induced paw edema assessed as inhibition of carrageenan-induced paw edema at 100 mg/kg, po administered as single dose prior to carrageenan challenge measured after 4 hrs relative to control; assay type: functional
Rattus norvegicus [7] = assay: Anti-inflammatory activity in albino rat model of carrageenan-induced paw edema assessed as inhibition of carrageenan-induced paw edema at 100 mg/kg, po administered as single dose prior to carrageenan challenge measured after 8 hrs relative to control; assay type: functional
Rattus norvegicus [8] = assay: Anti-inflammatory activity in albino rat model of carrageenan-induced paw edema assessed as inhibition of carrageenan-induced paw edema at 100 mg/kg, po administered as single dose prior to carrageenan challenge measured after 12 hrs relative to control; assay type: functional
[9] = Ulcerogenic activity in rat assessed as ulcer index at 50 mg/kg, sc qd for 4 days post 18 hrs fasting measured after 4 days; assay type: toxicity, organism-based; conditions: in vivo, 96 h
[10] = Ulcerogenic activity in rat assessed as incidence of gastric ulceration at 50 mg/kg, sc qd for 4 days post 18 hrs fasting measured after 4 days relative to control; assay type: toxicity, organism-based; conditions: in vivo, 96 h
[11] = Ulcerogenic activity in rat assessed as average number of ulcers formed at 50 mg/kg, sc qd for 4 days post 18 hrs fasting measured after 4 days; assay type: toxicity, organism-based; conditions: in vivo, 96 h
[12] = Ulcerogenic activity in rat assessed as average severity of ulcers formed at 50 mg/kg, sc qd for 4 days post 18 hrs fasting measured after 4 days; assay type: toxicity, organism-based; conditions: in vivo, 96 h
[13] = Ulcerogenic activity in rat assessed as effect on gastric mucosa at 50 mg/kg by hematoxylin and eosin staining based assay; assay type: toxicity, organism-based; conditions: in vivo
[14] = Ulcerogenic activity in rat assessed as effect on parietal cells at 50 mg/kg by hematoxylin and eosin staining based assay; assay type: toxicity, organism-based; conditions: in vivo
[15] = Ulcerogenic activity in rat assessed as effect on gastric submucosa at 50 mg/kg by hematoxylin and eosin staining based assay; assay type: toxicity, organism-based; conditions: in vivo
[16] = Hepatotoxicity in rat assessed as effect on central veins in liver at 50 mg/kg by hematoxylin and eosin staining based assay; assay type: toxicity, organism-based; conditions: in vivo
[17] = Hepatotoxicity in rat assessed as effect on portal veins at 50 mg/kg by hematoxylin and eosin staining based assay; assay type: toxicity, organism-based; conditions: in vivo
[18] = Hepatotoxicity in rat assessed as effect on bile ducts at 50 mg/kg by hematoxylin and eosin staining based assay; assay type: toxicity, organism-based; conditions: in vivo
[19] = Hepatotoxicity in rat assessed as effect on hepatocytes in periportal area at 50 mg/kg by hematoxylin and eosin staining based assay; assay type: toxicity, organism-based; conditions: in vivo
[20] = Nephrotoxicity in rat assessed as effect on glomeruli at 50 mg/kg surrounded by Bowmann's capsule by hematoxylin and eosin staining based assay; assay type: toxicity, organism-based; conditions: in vivo
[21] = Nephrotoxicity in rat assessed as effect on proximal tubule at 50 mg/kg by hematoxylin and eosin staining based assay; assay type: toxicity, organism-based; conditions: in vivo
[22] = Nephrotoxicity in rat assessed as effect on distal tubule at 50 mg/kg by hematoxylin and eosin staining based assay; assay type: toxicity, organism-based; conditions: in vivo

| Compound | Activity [1] | inhibition in vivo at 100 mg/kg (Rattus norvegicus [4]) | inhibition in vivo at 100 mg/kg (Rattus norvegicus [5]) | inhibition in vivo at 100 mg/kg (Rattus norvegicus [6]) | inhibition in vivo at 100 mg/kg (Rattus norvegicus [7]) | inhibition in vivo at 100 mg/kg (Rattus norvegicus [8]) | UI [9] | Activity [10] | Activity [11] | Activity [12] | Activity [13] | Activity [14] | Activity [15] | Activity [16] | Activity [17] | Activity [18] | Activity [19] | Activity [20] | Activity [21] | Activity [22] | other results |
| --- | --- | --- | --- | --- | --- | --- | --- | --- | --- | --- | --- | --- | --- | --- | --- | --- | --- | --- | --- | --- | --- |
| O=C(/C=C/c1cn(-c2ccccc2)nc1-c1ccc(OCc2ccccc2)cc1)c1ccccc1 | Non-Toxic | 81.7% | 58.2% | 51.2% | 23.8% | 32.5% | 2.8 | 2% | 0.4 | 0.4 | Non-Toxic | Non-Toxic | Non-Toxic | Non-Toxic | Non-Toxic | Non-Toxic | Non-Toxic | Non-Toxic | Non-Toxic | Non-Toxic | IC50 [2]: 15500 nM; IC50 [3]: 1880 nM; Ratio IC50 (Homo sapiens): 8.22 |
| Clc1ccc(-c2cc(-c3cn(-c4ccccc4)nc3-c3ccc(OCc4ccccc4)cc3)on2)cc1 | Toxic | 69.8% | 70.9% | 42.9% | 48.7% | 45% | 8.4 | 6% | 1.2 | 1.2 | Toxic | Toxic | Toxic | Toxic | Toxic | Toxic | Toxic | Toxic | Toxic | Toxic | IC50 [2]: 2890 nM; IC50 [3]: 1250 nM; Ratio IC50 (Homo sapiens): 2.31 |
| S=c1nc(-c2ccc(Cl)cc2)cc(-c2cn(-c3ccccc3)nc2-c2ccc(OCc3ccccc3)cc2)[nH]1 | Toxic | 42.2% | 54.4% | 41.8% | 24.7% | 15.5% | 6.4 | 4% | 1.2 | 1.2 | Toxic | Toxic | Toxic | Toxic | Toxic | Toxic | Toxic | Toxic | Toxic | Toxic | IC50 [2]: 7200 nM; IC50 [3]: 1100 nM; Ratio IC50 (Homo sapiens): 6.54 |
| CC(=O)n1nc(-c2ccccc2)cc1-c1cn(-c2ccccc2)nc1-c1ccc(OCc2ccccc2)cc1 | Toxic | 78.3% | 64.6% | 59.8% | 55.2% | 57.7% | 6 | 4% | 0.8 | 1.2 | Toxic | Toxic | Toxic | Toxic | Toxic | Toxic | Toxic | Toxic | Toxic | Toxic | IC50 [2]: 13000 nM; IC50 [3]: 1930 nM; Ratio IC50 (Homo sapiens): 6.74 |
| O=C(/C=C/c1cn(-c2ccccc2)nc1-c1ccc(OCc2ccccc2)cc1)c1ccc(Cl)cc1 | Non-Toxic | 89.7% | 77.1% | 69.9% | 48.6% | 41.4% | 2.4 | 2% | 0.2 | 0.2 | Non-Toxic | Non-Toxic | Non-Toxic | Non-Toxic | Non-Toxic | Non-Toxic | Non-Toxic | Non-Toxic | Non-Toxic | Non-Toxic | IC50 [2]: 5590 nM; IC50 [3]: 600 nM; Ratio IC50 (Homo sapiens): 9.32 |
| COc1ccc2c(c1)c(CC(=O)O)c(C)n2C(=O)c1ccc(Cl)cc1 [INDOMETHACIN] | Toxic | 80.2% | 79.8% | 65.2% | 62.5% | 55.6% | 17.6 | 10% | 5 | 2.6 | Toxic | Toxic | Toxic | Toxic | Toxic | Toxic | Toxic | Toxic | Toxic | Toxic |  |
| N#CC1=C(N)OC(c2ccccc2)=CC1c1cn(-c2ccccc2)nc1-c1ccc(OCc2ccccc2)cc1 (stereo unspecified) | Toxic | 69% | 59.5% | 54.5% | 42.9% | 28.2% | 5.2 | 4% | 0.8 | 0.4 | Toxic | Toxic | Toxic | Toxic | Toxic | Toxic | Toxic | Toxic | Toxic | Toxic | IC50 [2]: 4020 nM; IC50 [3]: 720 nM; Ratio IC50 (Homo sapiens): 5.58 |
| Cc1ccc(-c2cc(C(F)(F)F)nn2-c2ccc(S(N)(=O)=O)cc2)cc1 [CELECOXIB] | Toxic | 56.1% | 58.5% | 48.1% | 44.9% | 34.6% | 3.2 | 2% | 0.6 | 0.6 | Toxic | Toxic | Toxic | Toxic | Toxic | Toxic | Toxic | Toxic | Toxic | Toxic |  |
| Nc1nc(-c2ccccc2)cc(-c2cn(-c3ccccc3)nc2-c2ccc(OCc3ccccc3)cc2)n1 | Toxic | 82% | 74.4% | 83.9% | 40.2% | 33.6% | 3.2 | 2% | 0.6 | 0.6 | Toxic | Toxic | Toxic | Toxic | Toxic | Toxic | Toxic | Toxic | Toxic | Toxic | IC50 [2]: 16500 nM; IC50 [3]: 2800 nM; Ratio IC50 (Homo sapiens): 5.89 |
